Measured values reported in publication PMC8878317, “Chemogenomics identifies acetyl-coenzyme A synthetase as a target for malaria treatment and prevention” (Cell Chemical Biology, 2022).
Where two headings read alike, the source gives them in different places.

Test system: P. falciparum MMV019721-resistant lines (3D7-A10 or Dd2-B2 derived)
Assay: Dose-response assay of MMV019721-selected resistant lines (bulk cultures and clones)
Type: cell-based
Conditions: Plasmodium falciparum
Protocol: For in vitro–selected lines, drug susceptibility was measured by SYBR Green I–based assay ([Johnson et al., 2007]; [Smilkstein et al., 2004]). Ring-stage parasites were cultured for 72 hr at 1% hematocrit and 1% starting parasitemia in 384-well black clear-bottom plates containing test compounds plated in triplicate in 12-point serial dilutions. Lysis buffer (0.16% w/v saponin, 1.6% Triton X-100, 5 mM EDTA, and 20 mM Tris-HCl, pH 7.4) with SYBR Green I fluorescent dye (Invitrogen) was added, and fluorescence readings were taken (excitation at 494 nm, emission at 530 nm). Alternatively, Dd2-B2 ring-stage cultures at 0.3% parasitemia and 1% hematocrit were exposed for 72 hr to a range of ten drug concentrations that were 2-fold serially diluted in duplicates along with drug-free controls. Parasite survival was assessed by flow cytometry on an Accuri C6 (BD Biosciences) using SYBR Green and MitoTracker Deep Red FM (Life Technologies) as nucleic acid stain and vital dyes respectively. EC50 values were calculated using a nonlinear regression curve fit in Prism Software version 8 (GraphPad).
Bulk cultures were tested for reduced drug susceptibility and individual clones were isolated by limiting dilution.

## CCN(CC)S(=O)(=O)c1ccc(Cl)c(C(=O)Nc2ccc3nc(C)sc3c2)c1 [MMV019721]
MDR1, read-out: MMV019721 mean EC50 (nM) ± SD (n), selection 9, Dd2-B2, clone B3, AcAS CNV, MDR1 CNV, AP2-I CNV
  EC50: 1400 ± 200 nM
read-out: MMV019721 mean EC50 (nM) ± SD (n), selection 1, Dd2-B2, clone E4, AcAS:A597V
  EC50: 7700 ± 570 nM
read-out: MMV019721 mean EC50 (nM) ± SD (n), selection 2, Dd2-B2, clone E10, AcAS:A597V
  EC50: 9200 ± 810 nM
read-out: MMV019721 mean EC50 (nM) ± SD (n), selection 2, Dd2-B2, clone F12, AcAS:A597V, n=1
  EC50: 8400 nM
read-out: MMV019721 mean EC50 (nM) ± SD (n), selection 3, Dd2-B2, clone F2, AcAS:A597V
  EC50: 9000 ± 490 nM
read-out: MMV019721 mean EC50 (nM) ± SD (n), selection 3, Dd2-B2, clone F10, AcAS:A597V
  EC50: 11000 ± 1300 nM
read-out: MMV019721 mean EC50 (nM) ± SD (n), selection 4, 3D7-A10, Bulk, sequencing not determined
  EC50: 460 ± 100 nM
read-out: MMV019721 mean EC50 (nM) ± SD (n), selection 5, 3D7-A10, clone 2B1C, AcAS:T648M
  EC50: 7700 ± 1200 nM
read-out: MMV019721 mean EC50 (nM) ± SD (n), selection 5, 3D7-A10, clone 2B1F, AcAS:T648M
  EC50: 7500 ± 1400 nM
read-out: MMV019721 mean EC50 (nM) ± SD (n), selection 5, 3D7-A10, clone 2B12B, AcAS:T648M
  EC50: 7400 ± 500 nM
read-out: MMV019721 mean EC50 (nM) ± SD (n), selection 6, 3D7-A10, clone 3B1D, AcAS:T648M
  EC50: 7100 ± 1700 nM
read-out: MMV019721 mean EC50 (nM) ± SD (n), selection 6, 3D7-A10, clone 3B6H, AcAS:T648M
  EC50: 6800 ± 420 nM
read-out: MMV019721 mean EC50 (nM) ± SD (n), selection 6, 3D7-A10, clone 3B11G, AcAS:T648M
  EC50: 6800 ± 1100 nM
read-out: MMV019721 mean EC50 (nM) ± SD (n), selection 7, 3D7-A10, clone 4B3D, AcAS:T648M
  EC50: 7700 ± 1700 nM
read-out: MMV019721 mean EC50 (nM) ± SD (n), selection 7, 3D7-A10, clone 4B4H, AcAS:T648M
  EC50: 8400 ± 680 nM
read-out: MMV019721 mean EC50 (nM) ± SD (n), selection 7, 3D7-A10, clone 4B8B, AcAS:T648M
  EC50: 7500 ± 1100 nM
read-out: MMV019721 mean EC50 (nM) ± SD (n), selection 8, Dd2-B2, clone A3, AcAS CNV, AP2-I CNV
  EC50: 1400 ± 90 nM
read-out: MMV019721 mean EC50 (nM) ± SD (n), selection 10, Dd2-B2, clone C3, ACS11 INDEL(Leu24-Asp30), AP2-I CNV
  EC50: 2000 ± 170 nM
read-out: MMV019721 mean EC50 (nM) ± SD (n), selection 11, 3D7-A10, clone 1E9, sequencing not determined
  EC50: 3000 ± 250 nM
read-out: MMV019721 mean EC50 (nM) ± SD (n), selection 11, 3D7-A10, clone 1E12, AcAS: Ala652Thr
  EC50: 2700 ± 270 nM
read-out: MMV019721 mean EC50 (nM) ± SD (n), selection 11, 3D7-A10, clone 1G4, sequencing not determined
  EC50: 2000 ± 600 nM
read-out: MMV019721 mean EC50 (nM) ± SD (n), selection 11, 3D7-A10, clone 1G8, ACS11:Thr767Ile
  EC50: 1700 ± 340 nM
read-out: MMV019721 mean EC50 (nM) ± SD (n), selection 12, 3D7-A10, clone 2B4, AcAS:T648M
  EC50: 8500 ± 840 nM
read-out: MMV019721 mean EC50 (nM) ± SD (n), selection 12, 3D7-A10, clone 2C6, sequencing not determined
  EC50: 2200 ± 770 nM
read-out: MMV019721 mean EC50 (nM) ± SD (n), selection 12, 3D7-A10, clone 2D11, sequencing not determined
  EC50: 7100 ± 1300 nM
read-out: MMV019721 mean EC50 (nM) ± SD (n), selection 12, 3D7-A10, clone 2G6, AcAS: Ala652Thr
  EC50: 4000 ± 630 nM
read-out: MMV019721 mean EC50 (nM) ± SD (n), selection 13, 3D7-A10, clone 3B9, sequencing not determined
  EC50: 2300 ± 680 nM
read-out: MMV019721 mean EC50 (nM) ± SD (n), selection 13, 3D7-A10, clone 3C7, sequencing not determined
  EC50: 2300 ± 530 nM
read-out: MMV019721 mean EC50 (nM) ± SD (n), selection 13, 3D7-A10, clone 3D10, ACS11: Asp269Gly
  EC50: 1500 ± 82 nM
read-out: MMV019721 mean EC50 (nM) ± SD (n), selection 13, 3D7-A10, clone 3G8, ACS11: Ser74Leu
  EC50: 2200 ± 570 nM
read-out: PfAcAS:A597V-resistant clone EC50, range over A597V clones
  EC50: 7700 to 11000 nM
read-out: PfAcAS:T648M EC50, range over T648M clones
  EC50: 6800 to 8400 nM
